Assay in all cases: NCI-60 cell line screen, 48 h
In experiment [1] the test system is COLO 205 colon.
For experiment [2], the system named is HT29 colon.
The test system of experiment [3] is IGROV1 ovarian.
Experiment [4] has as its system K-562 leukemia.
Experiment [5] relates to SNB-19 CNS.
The test system of experiment [6] is UACC-257 melanoma.
Experiment [7] deals with UACC-62 melanoma.
The subject of experiment [8] is MDA-N.
The subject of experiment [9] is PC-3 prostate.
The subject of experiment [10] is TK-10 renal.

Several values for one entry are separate records, joined by “and”; a condition that tells them apart may be missing. Equal entries are not always repeated.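 Test compounds were applied to cells in 96-well plates for 48 hours at 5 doses. GI50 marks 50% less growth. TGI is the concentration that stops growth completely.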 Bounds are passed on as bounds.

This note sets out measurements from PubChem BioAssay (NCI).

As to `O=P(NCCCO)(OCc1ccccc1)N(CCCl)CCCl` (configuration not stated), the TGI in experiment [1], in experiment [2], in experiment [3], in [4], in experiment [5] and in experiment [6] was over 100 µM throughout. Also, the TGI in experiment [7] is over 100 µM.
As for `COc1ccc(N2C(=O)C(=O)C3(CCCCC3)C2=O)c2ccccc12`, the TGI in experiment [1], in experiment [2], in experiment [3], in experiment [4], in experiment [8] and in [9] was over 10 µM in each case. In addition, the TGI in [5], in experiment [10] and in experiment [7] was over 10 µM throughout.
`C#C[C@]1(O)CC[C@H]2[C@@H]3CCc4cc(O)ccc4[C@H]3CC[C@@]21C`: the TGI in experiment [1] was 92.7 µM; in experiment [2], 54.4 µM; in experiment [3] it was over 100 µM; in experiment [5], over 100 µM; in experiment [10] it was over 100 µM; in [6], over 100 µM. For the same compound, the TGI in experiment [7] was over 100 µM.
For `O=C(O)c1cc2ccccc2c(N=Nc2ccc(S(=O)(=O)Nc3ncccn3)cc2)c1O`, the TGI in [1], in experiment [2], in [3], in experiment [4], in [9] and in [5] was over 100 µM throughout. The TGI in experiment [10], in experiment [6] and in experiment [7] was over 100 µM each time.
For `COc1ccc(CCn2cncn2)cc1`, the TGI in experiment [1], in experiment [2], in experiment [3], in experiment [4], in [5] and in experiment [10] was over 100 µM throughout. In addition, the TGI in experiment [6] and in experiment [7] was over 100 µM each time.
Turning to `Cc1ccc(-c2cn3c(nc4ccccc43)c(/C=C/c3ccco3)n2)cc1`, the TGI in [1], in experiment [2], in experiment [3], in experiment [4], in [8] and in [5] was over 100 µM throughout. In addition, the TGI in [10], in [6] and in experiment [7] was over 100 µM throughout.
Take `CC1(C)OC[C@@H]([C@@]2(COC(c3ccccc3)(c3ccccc3)c3ccccc3)CC=CC(=O)O2)O1`: the TGI in experiment [1] is 50.6 µM; in [2] it was over 100 µM; in experiment [4] it was over 100 µM; in experiment [9], over 100 µM; in experiment [5] it was over 100 µM; in experiment [10], over 100 µM. Besides, the TGI in experiment [6] and in experiment [7] was over 100 µM in each case.
Regarding `CC(Oc1ccc(Cl)cc1Cl)C(=O)NN1C(=O)CC(=O)N(c2ccccc2)C1=S` (configuration not stated), the TGI in [1], in experiment [2], in [3], in experiment [4], in [9] and in [5] was over 100 µM in each case. The TGI in experiment [10], in [6] and in experiment [7] was over 100 µM throughout.
For `CN(C)c1ccc(-c2ccc(-c3ccc(C(=N)N)cn3)o2)cc1`, the GI50 is 1.04 µM in [1]; 0.479 µM in [2]; 1.89 µM in experiment [3]; 1.5 µM in experiment [9]; 1.87 µM in experiment [5]; 1.95 µM in [10]. Also, the GI50 in experiment [6] is 1.77 µM; in [7], 1.76 µM. Moreover, the TGI in experiment [1] is 2.28 µM; in experiment [2], 1.74 µM; in [3], 3.6 µM; in experiment [9], 2.93 µM; in experiment [5] it was 3.64 µM; in [10] it was 3.39 µM. Besides, the figures for the TGI in experiment [6] and in experiment [7] were 3.43 µM and 3.34 µM, respectively.
Turning to `C=C1C(O)C2(O)OCC34C(CC5C(C)=CC(=O)C(O)C5(C)C23)OC(=O)C(OC(=O)C/C=C/CCCCCCCC)C14` (configuration not stated), the TGI amounted to 0.0464 µM in experiment [1]; 0.115 µM in [2]; 0.0303 µM in [3]; 0.251 µM in experiment [4]; 0.0335 µM in [5]; 0.0292 µM in experiment [7].
With `O=c1c2cc(O)ccc2n2nnc3ccc(NCCNCCO)c1c32`, the TGI in [1] was 50.9 µM and 21.7 µM; in experiment [2] it was > 66.3 µM and 29.1 µM; in experiment [3] it was > 78.7 µM and 39.1 µM; in experiment [4], > 62.8 µM and 14.7 µM; in experiment [5] it was 39.4 µM and 29.1 µM; in experiment [10] it was > 50 µM and 60.8 µM. Moreover, the TGI is 53.8 µM and 20.7 µM in experiment [6]; 19.4 µM and 13.3 µM in experiment [7]. The GI50 was 14.4 µM and 5.57 µM in experiment [3]; 6.58 µM and 2.59 µM in [4]; 3.75 µM and 9.62 µM in experiment [10]; 20.5 µM and 6.76 µM in experiment [6]; 6.87 µM and 3.14 µM in experiment [7].
`CCCCCCCCCCCCCCCc1nc(=S)[nH][nH]1`: the TGI in experiment [2], in experiment [4], in experiment [5], in experiment [10], in [6] and in experiment [7] was over 100 µM throughout.
